System: Mtb BioA overexpression strain (BioA-OE)
Assay: microbe, parasite or virus in culture
Type: cell-based, Mycobacterium tuberculosis

## CC(=O)c1ccc(N2CCN(C(=O)c3ccc4c(c3)OCO4)CC2)cc1 [Compound 6, 1-(4-(4-(Benzo[d][1,3]dioxole-5-carbonyl)piperazin-1-yl)phenyl)-ethanone]
Mycobacterium tuberculosis, read-out: MIC that results in 90% inhibition, BioA-OE
  MIC: > 50 µM

## (3-Chlorophenyl)(4-(5-methoxypyridin-2-yl)piperazin-1-yl)-methanone [Compound 22]
MIC that results in 50% inhibition, […]
  MIC50 BioA-OE: >50 µM

Source: PMC5590679 (Journal of medicinal chemistry, 2017)
